Laboratory results published in PMC11903733 (Frontiers in Pharmacology, 2025).
pIC50: −log10 of the molar value.

Tests used:
Assay in all cases: SelectScreen kinase profiling
Assay type in all cases: biochemical
NTRK1 = NTRK1 (Homo sapiens, UniProt P04629)
Experimental: (§1) The kinase selectivity analysis of LTM-1 was performed utilizing the SelectScreen Kinase Profiling Service offered by Thermo Fisher Scientific. In a dose-response assay featuring a ten-point dilution series from 0.25 μM to 128 μM, the inhibitory effects of LTM-1 on substrate phosphorylation reactions catalyzed by a panel of kinases were assessed. Consequently, the half-maximal inhibitory concentrations (IC50 values) for each kinase were determined.

CDK6 = CDK6 (Homo sapiens, UniProt Q00534)
Experimental: as §1

FES = FES (Homo sapiens, UniProt P07332)
Experimental: as §1

FGFR2 = FGFR2 (Homo sapiens, UniProt P21802)
Experimental: as §1

CDK13 = CDK13 (Homo sapiens, UniProt Q14004)
Experimental: as §1

LYN = LYN (Homo sapiens, UniProt P07948)
Experimental: as §1

ABL1 = ABL1 (Homo sapiens, UniProt P00519)
Experimental: as §1

MERTK = MERTK (Homo sapiens, UniProt Q12866)
Experimental: as §1

CDK3 = CDK3 (Homo sapiens, UniProt Q00526)
Experimental: as §1

FYN = FYN (Homo sapiens, UniProt P06241)
Experimental: as §1

NTRK3 = NTRK3 (Homo sapiens, UniProt Q16288)
Experimental: as §1

MST1R = MST1R (Homo sapiens, UniProt Q04912)
Experimental: as §1

EPHB3 = EPHB3 (Homo sapiens, UniProt P54753)
Experimental: as §1

ERBB2 = ERBB2 (Homo sapiens, UniProt P04626)
Experimental: as §1

ERBB4 = ERBB4 (Homo sapiens, UniProt Q15303)
Experimental: as §1

EPHB4 = EPHB4 (Homo sapiens, UniProt P54760)
Experimental: as §1

ROS1 = ROS1 (Homo sapiens, UniProt P08922)
Experimental: as §1

NTRK2 = NTRK2 (Homo sapiens, UniProt Q16620)
Experimental: as §1

CSF1R = CSF1R (Homo sapiens, UniProt P07333)
Experimental: as §1

CDK2 = CDK2 (Homo sapiens, UniProt P24941)
Experimental: as §1

KIT = KIT (Homo sapiens, UniProt P10721)
Experimental: as §1

BTK = BTK (Homo sapiens, UniProt Q06187)
Experimental: as §1

JAK2 = JAK2 (Homo sapiens, UniProt O60674)
Experimental: as §1

FRK = FRK (Homo sapiens, UniProt P42685)
Experimental: as §1

JAK3 = JAK3 (Homo sapiens, UniProt P52333)
Experimental: as §1

CDK19 = CDK19 (Homo sapiens, UniProt Q9BWU1)
Experimental: as §1

CDK5 = CDK5 (Homo sapiens, UniProt Q00535)
Experimental: as §1

KDR = KDR (Homo sapiens, UniProt P35968)
Experimental: as §1

MUSK = MUSK (Homo sapiens, UniProt O15146)
Experimental: as §1

FGR = FGR (Homo sapiens, UniProt P09769)
Experimental: as §1

AXL = AXL (Homo sapiens, UniProt P30530)
Experimental: as §1

FGFR3 = FGFR3 (Homo sapiens, UniProt P22607)
Experimental: as §1

PTK2 = PTK2 (Homo sapiens, UniProt Q05397)
Experimental: as §1

CDK7 = CDK7 (Homo sapiens, UniProt P50613)
Experimental: as §1

CDK4 = CDK4 (Homo sapiens, UniProt P11802)
Experimental: as §1

Measured: pIC50

ERBB4, sequence (Q15303 26-1308): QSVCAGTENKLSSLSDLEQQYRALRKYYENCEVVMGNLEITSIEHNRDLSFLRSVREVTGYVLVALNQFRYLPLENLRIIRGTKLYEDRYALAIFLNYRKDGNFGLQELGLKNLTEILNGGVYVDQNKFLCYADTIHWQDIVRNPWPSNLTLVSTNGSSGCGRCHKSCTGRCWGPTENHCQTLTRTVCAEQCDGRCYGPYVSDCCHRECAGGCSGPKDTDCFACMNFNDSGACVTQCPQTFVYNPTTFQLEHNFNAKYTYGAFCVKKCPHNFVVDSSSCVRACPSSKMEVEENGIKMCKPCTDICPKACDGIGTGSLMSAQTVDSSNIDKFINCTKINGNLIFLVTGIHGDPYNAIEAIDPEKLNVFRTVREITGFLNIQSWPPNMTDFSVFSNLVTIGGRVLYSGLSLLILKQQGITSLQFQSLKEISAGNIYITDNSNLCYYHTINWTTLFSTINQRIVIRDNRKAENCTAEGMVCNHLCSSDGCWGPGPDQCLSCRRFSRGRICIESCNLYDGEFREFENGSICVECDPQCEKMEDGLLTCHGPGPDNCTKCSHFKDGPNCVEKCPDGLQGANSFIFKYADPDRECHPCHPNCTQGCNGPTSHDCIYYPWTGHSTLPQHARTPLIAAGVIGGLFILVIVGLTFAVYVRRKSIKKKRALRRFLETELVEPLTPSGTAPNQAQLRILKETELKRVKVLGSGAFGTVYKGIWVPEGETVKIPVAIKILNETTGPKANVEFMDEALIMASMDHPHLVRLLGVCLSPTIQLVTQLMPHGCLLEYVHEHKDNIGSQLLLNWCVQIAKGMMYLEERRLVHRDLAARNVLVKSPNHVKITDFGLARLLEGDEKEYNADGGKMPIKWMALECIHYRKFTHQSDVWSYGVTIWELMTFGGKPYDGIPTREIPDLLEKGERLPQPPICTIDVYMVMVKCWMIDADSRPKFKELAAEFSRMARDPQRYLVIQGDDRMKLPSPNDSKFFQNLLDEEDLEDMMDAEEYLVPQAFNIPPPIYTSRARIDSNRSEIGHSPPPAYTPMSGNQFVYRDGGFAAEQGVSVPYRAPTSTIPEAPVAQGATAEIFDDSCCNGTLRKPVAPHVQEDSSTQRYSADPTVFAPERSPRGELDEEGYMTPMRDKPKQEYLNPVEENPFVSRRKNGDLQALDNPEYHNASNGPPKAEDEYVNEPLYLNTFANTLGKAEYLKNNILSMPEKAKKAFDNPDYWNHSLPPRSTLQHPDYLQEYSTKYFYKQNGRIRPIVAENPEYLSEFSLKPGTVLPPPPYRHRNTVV
JAK3, sequence (P52333 whole entry): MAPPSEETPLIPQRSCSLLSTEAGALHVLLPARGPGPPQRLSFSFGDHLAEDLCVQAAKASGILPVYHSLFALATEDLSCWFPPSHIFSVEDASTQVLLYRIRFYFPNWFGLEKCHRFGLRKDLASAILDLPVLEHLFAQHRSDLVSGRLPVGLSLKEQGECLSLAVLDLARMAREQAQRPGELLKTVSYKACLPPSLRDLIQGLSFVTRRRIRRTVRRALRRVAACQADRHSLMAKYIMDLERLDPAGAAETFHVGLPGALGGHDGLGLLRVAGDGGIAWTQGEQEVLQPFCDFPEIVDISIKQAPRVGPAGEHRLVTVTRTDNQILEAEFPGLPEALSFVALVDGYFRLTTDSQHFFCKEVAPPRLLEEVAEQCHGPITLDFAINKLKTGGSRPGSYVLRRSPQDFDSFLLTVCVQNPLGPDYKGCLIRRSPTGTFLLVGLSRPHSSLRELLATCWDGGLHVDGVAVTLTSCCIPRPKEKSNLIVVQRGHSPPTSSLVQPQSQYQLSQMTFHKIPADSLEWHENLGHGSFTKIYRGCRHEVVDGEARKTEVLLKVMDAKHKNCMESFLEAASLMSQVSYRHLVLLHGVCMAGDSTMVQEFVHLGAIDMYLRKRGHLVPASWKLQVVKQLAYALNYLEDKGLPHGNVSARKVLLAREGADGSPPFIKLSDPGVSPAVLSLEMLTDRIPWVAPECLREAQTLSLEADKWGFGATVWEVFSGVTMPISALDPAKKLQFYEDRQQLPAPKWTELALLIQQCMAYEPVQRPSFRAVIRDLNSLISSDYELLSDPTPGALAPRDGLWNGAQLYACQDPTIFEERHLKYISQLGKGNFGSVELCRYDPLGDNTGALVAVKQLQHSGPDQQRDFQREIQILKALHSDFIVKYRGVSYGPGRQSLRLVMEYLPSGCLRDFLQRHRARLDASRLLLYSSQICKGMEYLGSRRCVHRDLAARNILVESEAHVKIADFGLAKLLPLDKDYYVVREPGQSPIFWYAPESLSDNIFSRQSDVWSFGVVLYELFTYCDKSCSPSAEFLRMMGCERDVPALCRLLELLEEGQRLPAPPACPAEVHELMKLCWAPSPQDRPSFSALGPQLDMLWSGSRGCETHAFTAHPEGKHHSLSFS
NTRK1, sequence (P04629 33-796): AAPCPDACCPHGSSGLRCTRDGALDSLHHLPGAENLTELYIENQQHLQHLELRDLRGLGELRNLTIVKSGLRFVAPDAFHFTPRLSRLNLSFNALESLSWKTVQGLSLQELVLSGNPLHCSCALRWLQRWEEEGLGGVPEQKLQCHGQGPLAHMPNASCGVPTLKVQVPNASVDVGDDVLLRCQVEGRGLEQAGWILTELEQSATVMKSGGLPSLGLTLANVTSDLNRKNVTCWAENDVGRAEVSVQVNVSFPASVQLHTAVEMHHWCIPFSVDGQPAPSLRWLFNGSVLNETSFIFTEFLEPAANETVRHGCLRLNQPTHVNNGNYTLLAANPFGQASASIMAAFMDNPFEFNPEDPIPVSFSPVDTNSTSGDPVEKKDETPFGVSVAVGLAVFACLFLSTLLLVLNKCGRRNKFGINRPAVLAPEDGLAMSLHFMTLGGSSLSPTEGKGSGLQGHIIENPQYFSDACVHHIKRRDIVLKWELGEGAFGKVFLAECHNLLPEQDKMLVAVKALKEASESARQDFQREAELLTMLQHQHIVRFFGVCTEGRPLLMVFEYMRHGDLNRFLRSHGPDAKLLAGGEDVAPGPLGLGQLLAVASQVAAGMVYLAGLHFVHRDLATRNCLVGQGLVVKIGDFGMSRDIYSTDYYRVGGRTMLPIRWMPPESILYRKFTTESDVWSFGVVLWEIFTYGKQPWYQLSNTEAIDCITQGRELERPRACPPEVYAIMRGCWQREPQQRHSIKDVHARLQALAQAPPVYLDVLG
CSF1R, sequence (P07333 20-972): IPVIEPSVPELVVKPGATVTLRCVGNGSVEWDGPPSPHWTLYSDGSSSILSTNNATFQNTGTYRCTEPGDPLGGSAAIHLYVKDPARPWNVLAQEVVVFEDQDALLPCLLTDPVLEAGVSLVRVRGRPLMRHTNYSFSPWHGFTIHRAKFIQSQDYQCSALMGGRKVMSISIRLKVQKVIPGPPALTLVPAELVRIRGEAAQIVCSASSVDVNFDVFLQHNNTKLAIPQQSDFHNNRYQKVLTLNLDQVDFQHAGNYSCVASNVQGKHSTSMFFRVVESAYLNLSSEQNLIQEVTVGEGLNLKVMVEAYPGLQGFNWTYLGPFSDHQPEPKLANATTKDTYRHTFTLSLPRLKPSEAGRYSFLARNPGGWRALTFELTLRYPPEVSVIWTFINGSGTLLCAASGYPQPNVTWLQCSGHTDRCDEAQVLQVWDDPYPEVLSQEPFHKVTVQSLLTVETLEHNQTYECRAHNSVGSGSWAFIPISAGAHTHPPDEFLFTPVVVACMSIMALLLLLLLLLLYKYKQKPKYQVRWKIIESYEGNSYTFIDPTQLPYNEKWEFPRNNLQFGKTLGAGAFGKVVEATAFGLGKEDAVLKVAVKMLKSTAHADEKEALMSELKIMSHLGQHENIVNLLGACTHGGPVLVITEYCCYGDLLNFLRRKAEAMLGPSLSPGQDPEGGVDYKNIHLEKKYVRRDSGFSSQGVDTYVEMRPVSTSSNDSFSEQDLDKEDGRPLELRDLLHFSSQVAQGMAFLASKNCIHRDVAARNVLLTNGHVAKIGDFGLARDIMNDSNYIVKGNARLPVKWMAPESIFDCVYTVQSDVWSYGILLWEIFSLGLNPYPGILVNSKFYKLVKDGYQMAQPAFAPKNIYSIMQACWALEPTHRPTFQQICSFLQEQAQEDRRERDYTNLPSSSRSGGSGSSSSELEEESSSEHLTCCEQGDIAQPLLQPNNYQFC
CDK3, sequence (Q00526 whole entry): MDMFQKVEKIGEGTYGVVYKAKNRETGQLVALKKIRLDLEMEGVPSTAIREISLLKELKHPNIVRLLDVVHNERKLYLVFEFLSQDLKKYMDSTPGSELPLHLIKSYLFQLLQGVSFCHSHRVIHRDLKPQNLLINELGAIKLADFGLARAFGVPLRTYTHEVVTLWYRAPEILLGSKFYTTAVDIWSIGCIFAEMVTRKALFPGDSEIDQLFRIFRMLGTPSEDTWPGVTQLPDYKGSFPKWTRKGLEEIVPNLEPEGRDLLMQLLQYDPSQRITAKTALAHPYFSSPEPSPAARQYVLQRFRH
CDK3, sequence (P24864 whole entry partner): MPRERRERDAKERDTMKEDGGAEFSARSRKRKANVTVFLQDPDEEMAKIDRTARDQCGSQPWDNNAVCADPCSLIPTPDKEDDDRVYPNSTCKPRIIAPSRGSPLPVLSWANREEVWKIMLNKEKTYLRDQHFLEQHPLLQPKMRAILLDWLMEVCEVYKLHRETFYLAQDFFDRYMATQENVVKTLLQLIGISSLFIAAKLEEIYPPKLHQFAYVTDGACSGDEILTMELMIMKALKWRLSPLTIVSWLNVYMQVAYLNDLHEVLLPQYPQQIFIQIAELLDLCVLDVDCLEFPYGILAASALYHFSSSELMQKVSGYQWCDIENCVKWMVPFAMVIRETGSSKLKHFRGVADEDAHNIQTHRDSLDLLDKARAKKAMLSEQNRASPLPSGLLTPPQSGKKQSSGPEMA

O=S(=O)(c1ccc(C(O)CO)c(C(F)(F)F)c1)N1CCc2cc(C3CC3NCC3CCNCC3)ccc21 (centres unmarked) [LTM-1]
< 5.00: all assays above
